Values quoted from earlier work, collected in patent US20200215022A1, “NOVEL CANNABINOID COMPOSITIONS AND METHODS OF TREATING PEDIATRIC EPILEPSY” (TILRAY, INC., priority 2016, published 2020).

Key:
sodium channel = conditions: human and animal models
CB2 = CB2 (Homo sapiens, UniProt P34972); conditions: Pacher et al., 2006
CYP2B6 = target: T1, CYP2B6 (Homo sapiens, UniProt P20813)
T1 sequence (P20813 1-491): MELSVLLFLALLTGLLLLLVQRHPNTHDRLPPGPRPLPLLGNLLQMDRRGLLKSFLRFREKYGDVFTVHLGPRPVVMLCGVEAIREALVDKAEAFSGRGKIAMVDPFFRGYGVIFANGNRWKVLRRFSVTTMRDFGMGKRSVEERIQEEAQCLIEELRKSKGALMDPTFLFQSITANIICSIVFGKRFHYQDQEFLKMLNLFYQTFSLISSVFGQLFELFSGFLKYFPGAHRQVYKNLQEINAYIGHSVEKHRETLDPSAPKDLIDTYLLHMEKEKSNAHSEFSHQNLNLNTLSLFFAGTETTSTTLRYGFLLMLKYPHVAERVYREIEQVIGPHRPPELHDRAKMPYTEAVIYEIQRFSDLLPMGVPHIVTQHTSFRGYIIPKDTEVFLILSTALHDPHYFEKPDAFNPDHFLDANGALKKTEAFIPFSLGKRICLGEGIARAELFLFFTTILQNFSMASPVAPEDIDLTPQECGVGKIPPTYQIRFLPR

CYP3A4 = CYP3A4 (Homo sapiens, UniProt P08684)
CYP2C8 = target: T2, CYP2C8 (Homo sapiens, UniProt P10632)
T2 sequence (P10632 1-490): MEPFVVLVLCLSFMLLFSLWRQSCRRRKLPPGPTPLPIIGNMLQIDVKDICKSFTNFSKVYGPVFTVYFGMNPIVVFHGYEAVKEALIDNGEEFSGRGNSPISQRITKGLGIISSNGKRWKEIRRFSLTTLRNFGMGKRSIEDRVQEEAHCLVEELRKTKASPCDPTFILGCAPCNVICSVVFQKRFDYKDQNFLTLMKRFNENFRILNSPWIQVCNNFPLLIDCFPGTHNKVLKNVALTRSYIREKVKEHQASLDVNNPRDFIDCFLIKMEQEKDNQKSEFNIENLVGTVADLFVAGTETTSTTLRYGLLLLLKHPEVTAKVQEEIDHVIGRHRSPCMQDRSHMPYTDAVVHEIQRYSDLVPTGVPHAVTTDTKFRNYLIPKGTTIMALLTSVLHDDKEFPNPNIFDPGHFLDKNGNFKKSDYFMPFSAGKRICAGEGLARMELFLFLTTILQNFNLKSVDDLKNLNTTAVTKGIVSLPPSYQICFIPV

CYP2C9 = CYP2C9 (Homo sapiens, UniProt P11712)
[1] = in vivo
CYP2C19 = CYP2C19 (Homo sapiens, UniProt P33261)
Chain of CYP2C19 (P33261 whole entry): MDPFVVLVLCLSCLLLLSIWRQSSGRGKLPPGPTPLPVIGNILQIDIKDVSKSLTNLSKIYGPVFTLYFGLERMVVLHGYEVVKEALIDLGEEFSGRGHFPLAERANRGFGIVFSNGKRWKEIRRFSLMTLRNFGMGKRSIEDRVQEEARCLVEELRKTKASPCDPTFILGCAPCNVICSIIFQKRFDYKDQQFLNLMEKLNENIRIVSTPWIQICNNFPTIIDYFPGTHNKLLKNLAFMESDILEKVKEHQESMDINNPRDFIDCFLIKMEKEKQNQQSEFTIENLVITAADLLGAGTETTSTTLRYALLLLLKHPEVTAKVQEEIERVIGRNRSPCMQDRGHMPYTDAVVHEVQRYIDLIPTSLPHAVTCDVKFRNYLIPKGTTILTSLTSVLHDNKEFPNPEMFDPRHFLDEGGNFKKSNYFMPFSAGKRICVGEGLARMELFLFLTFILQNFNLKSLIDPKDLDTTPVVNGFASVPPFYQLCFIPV

Chain of CB2 (P34972 whole entry, species assumed): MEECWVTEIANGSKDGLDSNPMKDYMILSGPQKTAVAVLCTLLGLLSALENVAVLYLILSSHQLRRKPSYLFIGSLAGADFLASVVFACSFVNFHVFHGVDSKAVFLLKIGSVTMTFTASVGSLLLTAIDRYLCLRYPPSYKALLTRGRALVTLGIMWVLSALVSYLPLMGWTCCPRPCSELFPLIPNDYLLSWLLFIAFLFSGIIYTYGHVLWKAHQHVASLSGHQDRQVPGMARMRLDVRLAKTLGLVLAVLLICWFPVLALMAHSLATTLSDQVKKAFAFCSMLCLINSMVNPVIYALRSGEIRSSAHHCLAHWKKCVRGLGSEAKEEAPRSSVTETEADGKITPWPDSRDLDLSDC
Chain of CYP2C9 (P11712 whole entry): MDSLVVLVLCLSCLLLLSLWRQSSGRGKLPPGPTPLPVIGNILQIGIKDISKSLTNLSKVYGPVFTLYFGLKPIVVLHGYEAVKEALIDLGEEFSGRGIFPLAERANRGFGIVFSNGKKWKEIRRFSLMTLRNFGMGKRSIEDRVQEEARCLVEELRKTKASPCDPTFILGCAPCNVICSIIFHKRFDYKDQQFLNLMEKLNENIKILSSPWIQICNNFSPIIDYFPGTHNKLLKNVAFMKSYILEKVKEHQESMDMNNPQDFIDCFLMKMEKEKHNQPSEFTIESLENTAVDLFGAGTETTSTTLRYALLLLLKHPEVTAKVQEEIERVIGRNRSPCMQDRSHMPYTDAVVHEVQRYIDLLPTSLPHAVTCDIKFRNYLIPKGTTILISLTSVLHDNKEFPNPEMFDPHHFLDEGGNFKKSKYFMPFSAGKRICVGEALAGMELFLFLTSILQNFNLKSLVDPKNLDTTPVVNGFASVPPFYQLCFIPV
Chain of CYP3A4 (P08684 whole entry): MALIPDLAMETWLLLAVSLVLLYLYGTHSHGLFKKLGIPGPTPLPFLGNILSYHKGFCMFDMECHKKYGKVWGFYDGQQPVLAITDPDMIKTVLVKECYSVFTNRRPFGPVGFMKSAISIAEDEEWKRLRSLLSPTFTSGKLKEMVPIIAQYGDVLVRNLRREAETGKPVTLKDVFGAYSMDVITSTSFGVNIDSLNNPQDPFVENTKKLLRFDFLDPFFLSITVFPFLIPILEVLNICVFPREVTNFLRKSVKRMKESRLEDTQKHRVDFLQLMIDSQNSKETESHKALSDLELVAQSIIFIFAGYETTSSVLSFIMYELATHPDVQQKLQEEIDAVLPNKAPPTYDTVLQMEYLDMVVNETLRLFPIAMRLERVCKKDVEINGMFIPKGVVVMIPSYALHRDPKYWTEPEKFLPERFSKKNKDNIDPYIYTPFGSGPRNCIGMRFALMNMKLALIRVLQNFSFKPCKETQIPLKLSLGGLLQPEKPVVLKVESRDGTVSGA

Structure (SMILES)	Sodium channel block (sodium channel)	Affinity for cannabinoid receptor CB2 (CB2)	Inhibition of CYP2B6 (CYP2B6)	Inhibition of CYP3A4 (CYP3A4)	Inhibition of CYP2C8 (CYP2C8)	Inhibition of CYP2C9 (CYP2C9)	Route of excretion [1]	Time CBD levels are detected post administration [1]	Inhibition of CYP2C19 (CYP2C19)	Lipid solubility
CCCCCc1cc(O)c(C/C=C(\C)CCC=C(C)C)c(O)c1 [CBG, cannabigerol]	potent sodium channel blockers	–	–	–	–	–	–	–	–	–
C=C(C)[C@@H]1CCC(C)=C[C@H]1c1c(O)cc(CCCCC)cc1O [CBD, cannabidiol]	potent sodium channel blockers	does not appear to have a great affinity	potent inhibitor	potent inhibitor	potent inhibitor	potent inhibitor	excreted in the urine and feces	up to 8 hours	potent inhibitor	highly lipid soluble
